{"source": "paper PMC9329448", "about": "(Journal of Experimental Pharmacology, 2022)", "target": "human dihydroorotate dehydrogenase (HsDHODH) (Homo sapiens, UniProt Q02127)", "sequence (Q02127 whole entry)": "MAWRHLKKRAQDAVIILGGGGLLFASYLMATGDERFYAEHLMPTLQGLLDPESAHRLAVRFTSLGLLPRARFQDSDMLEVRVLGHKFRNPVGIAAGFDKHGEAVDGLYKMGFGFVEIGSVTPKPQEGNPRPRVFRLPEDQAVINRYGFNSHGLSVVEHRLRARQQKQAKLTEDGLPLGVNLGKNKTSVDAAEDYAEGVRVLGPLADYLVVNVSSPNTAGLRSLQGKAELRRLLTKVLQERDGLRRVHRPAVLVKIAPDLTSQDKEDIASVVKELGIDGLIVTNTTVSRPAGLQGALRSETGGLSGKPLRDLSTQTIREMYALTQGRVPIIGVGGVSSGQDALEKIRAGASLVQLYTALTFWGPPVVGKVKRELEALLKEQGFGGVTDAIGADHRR", "type": "biochemical", "data": [{"smiles": "O=C(/C=C/c1ccc(O)c(O)c1)OCCc1ccccc1", "note": "[CAPE, caffeic acid phenethyl ester]", "values": [{"measurement": "IC50", "value": "121 ± 6.78", "unit": "µM"}]}]}
